Data taken from EP0655506B1 (priority 1994, dated 1995).

How the values were obtained:
[1] = biological target: T1, E. coli DNA polymerase I (large fragment, Klenow fragment), wild type (Escherichia coli, UniProt P00582); assay: Gel electrophoresis-based rate of incorporation of dideoxynucleotides relative to deoxynucleotides, varying the ratio of dNTPs to ddNTPs (Example 7); assay type: biochemical; conditions: 10 µM 4 dNTPs, ddNTP 100 to 2,000 µM; ddNTP:dNTP ratio giving fragments comparable to E. coli DNA polymerase I F762Y, multiplied by its Example 6 ratio
T1 construct: The large fragment of E. coli DNA polymerase I, commonly called the Klenow fragment; made in house
Experimental: (§1) This example is similar to that described in Example 6. While it is the preferred test for DNA polymerases that discriminate strongly against the incorporation of dideoxynucleotides (e.g. T7 DNA polymerase Y526F, E. coli DNA polymerase I and Taq DNA polymerase), it also works well with DNA polymerases that efficiently incorporate ddNMPs (e.g. T7 DNA polymerase, E. coli DNA polymerase I mutant F762Y and Taq DNA polymerase mutant F667Y).
(§2) The average length of a series of fragments is determined in one of two ways. […] The position of the front marking the appearance of visible radioactive bands is usually relatively sharp and readily observed by eye. However, it is also possible to determine such positions more precisely using the Phosphoimager to locate the position in each lane where a certain threshold of radioactivity per unit area occurs, starting at the top of the gel and moving down the gel.
(§3) Some DNA polymerases discriminate very strongly against the incorporation of dideoxynucleotides, in which case it is difficult to add sufficient ddNTPs to the reaction to clearly detect the position of the largest dideoxy-terminated fragments on a denaturing polyacrylamide gel. For such DNA polymerases, one can use an alkaline agarose gel electrophoresis to compare the lengths of the dideoxy-terminated fragments in the different series.
(§4) These tests were carried out using the six DNA polymerases described in Example 6. The reaction conditions were identical to that described in Example 6 except for the concentrations of dNTPs and ddNTPs. All reaction mixtures contained 10 µM 4 dNTPs. Each of the four ddNTP concentrations were varied by two-fold increments in the following ranges for the six DNA polymerases as follows: T7 DNA polymerase, E. coli DNA polymerase I F762Y, and Taq DNA polymerase F667Y , 0.02 µM to 1 µM, and T7 DNA polymerase Y526F, E. coli DNA polymerase I and Taq DNA polymerase, 100 to 2,000 µM. The reactions were carried out and the samples were analyzed by denaturing polyacrylamide gel electrophoresis as described in Example 6. Drying of the gel, autoradiography, and Phosphoimager analysis were as described in Example 6. The Table below summarizes the results from this experiment; the values shown for T7 DNA polymerase, E. coli DNA polymerase I F762Y, and Taq DNA polymerase F667Y are the absolute ratios obtained in Example 6 by statistical analysis of the rate of exponential decay in intensity of dideoxy-terminated fragments obtained using a 1:1 ratio of dNTPs to ddNTPs. […] This factor was multiplied by the absolute ratios obtained for T7 DNA polymerase, E. coli DNA polymerase I F762Y, and Taq DNA polymerase F667Y in Example 6 in order to obtain the values shown below for T7 DNA polymerase Y526F, E. coli DNA polymerase I and Taq DNA polymerase, respectively.

[2] = biological target: T2, Taq DNA polymerase (unmodified DNA polymerase from Thermus aquaticus) (Thermus aquaticus, UniProt P19821); assay: as above; assay type: biochemical; conditions: 10 µM 4 dNTPs, ddNTP 100 to 2,000 µM; ddNTP:dNTP ratio giving fragments comparable to Taq DNA polymerase F667Y, multiplied by its Example 6 ratio
T2 construct: to the gene that produces the full length Taq DNA polymerase; made in house
Experimental: as §1, §2, §3, §4

T2 sequence (P19821 whole entry, the tested form may be a part): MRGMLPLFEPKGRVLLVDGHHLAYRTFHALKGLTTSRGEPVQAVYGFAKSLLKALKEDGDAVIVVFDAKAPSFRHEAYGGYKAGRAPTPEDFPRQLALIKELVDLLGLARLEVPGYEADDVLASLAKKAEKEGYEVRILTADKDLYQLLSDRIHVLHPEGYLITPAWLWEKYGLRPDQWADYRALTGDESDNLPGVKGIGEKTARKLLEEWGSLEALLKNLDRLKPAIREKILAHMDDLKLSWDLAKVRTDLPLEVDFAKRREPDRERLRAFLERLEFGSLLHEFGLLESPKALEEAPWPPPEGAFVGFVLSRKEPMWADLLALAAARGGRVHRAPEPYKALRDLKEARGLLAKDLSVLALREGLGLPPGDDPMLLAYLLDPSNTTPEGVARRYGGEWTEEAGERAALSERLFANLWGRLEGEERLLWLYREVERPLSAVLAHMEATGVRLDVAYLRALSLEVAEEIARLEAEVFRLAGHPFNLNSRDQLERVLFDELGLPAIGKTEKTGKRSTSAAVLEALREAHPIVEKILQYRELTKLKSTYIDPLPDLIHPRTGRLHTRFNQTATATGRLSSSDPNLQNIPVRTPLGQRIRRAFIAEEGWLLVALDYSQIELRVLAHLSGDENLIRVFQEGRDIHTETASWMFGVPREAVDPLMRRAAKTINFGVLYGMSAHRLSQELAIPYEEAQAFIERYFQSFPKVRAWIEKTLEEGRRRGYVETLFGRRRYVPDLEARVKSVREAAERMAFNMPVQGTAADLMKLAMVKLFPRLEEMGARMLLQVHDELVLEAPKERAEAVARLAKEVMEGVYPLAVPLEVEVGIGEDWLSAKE
T1 sequence (P00582 324-928): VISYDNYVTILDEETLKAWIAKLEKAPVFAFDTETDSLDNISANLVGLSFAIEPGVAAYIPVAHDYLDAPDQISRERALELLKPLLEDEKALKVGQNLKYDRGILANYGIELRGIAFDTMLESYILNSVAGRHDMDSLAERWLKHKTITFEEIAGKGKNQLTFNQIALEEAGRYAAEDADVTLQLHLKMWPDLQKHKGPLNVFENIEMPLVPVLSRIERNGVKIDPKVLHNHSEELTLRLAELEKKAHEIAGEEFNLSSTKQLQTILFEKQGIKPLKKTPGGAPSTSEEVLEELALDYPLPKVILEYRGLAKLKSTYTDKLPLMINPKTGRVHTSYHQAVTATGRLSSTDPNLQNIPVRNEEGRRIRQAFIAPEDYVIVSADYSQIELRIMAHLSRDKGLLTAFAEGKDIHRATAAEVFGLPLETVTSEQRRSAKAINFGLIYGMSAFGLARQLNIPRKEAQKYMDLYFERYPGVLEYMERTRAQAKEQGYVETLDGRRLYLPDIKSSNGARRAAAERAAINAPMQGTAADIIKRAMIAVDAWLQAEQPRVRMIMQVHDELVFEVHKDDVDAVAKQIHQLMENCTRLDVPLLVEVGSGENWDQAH

SMILES | Incorporation Rate Ratios (dN/ddN) [1] | Incorporation Rate Ratios (dN/ddN) [2]
Nc1ncnc2c1ncn2[C@H]1CC[C@@H](COP(=O)(O)OP(=O)(O)OP(=O)(O)O)O1 [ddATP] | 720 | 4,700
Nc1ccn([C@H]2CC[C@@H](COP(=O)(O)OP(=O)(O)OP(=O)(O)O)O2)c(=O)n1 [ddCTP] | 250 | 2,600
Nc1nc2c(ncn2[C@H]2CC[C@@H](COP(=O)(O)OP(=O)(O)OP(=O)(O)O)O2)c(=O)[nH]1 [ddGTP] | 140 | 1,400
Cc1cn([C@H]2CC[C@@H](COP(=O)(O)OP(=O)(O)OP(=O)(O)O)O2)c(=O)[nH]c1=O [ddTTP] | 1,100 | 4,500
